Test results published in paper PMC11640419, “New Synthetic Analogs of Natural 5Z,9Z-Dienoic Acids—Hybrid Molecules Based on Oleanolic Acid: Synthesis and Study of Antitumor Activity” (Cancers, 2024).
Read-outs that look alike come from different tables or passages of the source.

How the values were obtained:
Assay type in all cases: cell-based, human
Jurkat = experiment: Cytotoxicity assay (7-AAD, flow cytometry)
Protocol: (§1) The human cell lines Jurkat, K562, U937, and HEK293 were obtained from the European Collection of Authenticated Cell Cultures (ECACC) and subsequently cultured in accordance with established standard protocols and sterile techniques. […] Subsequently, the cells were seeded into 24-well plates at a density of 5 × 10^4 cells per well and incubated for 12 h (Jurkat, K562, U937) and 24 h (HEK293).
(§2) The viability of the cells was evaluated through the utilization of the 7-AAD (7-aminoactinomycin D) dye (eBioscience™, San Diego, CA, USA). Following a 24 h incubation period with the test substances, the cells were washed with phosphate-salt buffer (PBS) and centrifuged at 400× g for five minutes. […] Subsequently, all cell samples were subjected to analysis on a NovoCyte Penteon flow cytometer (Agilent, Santa Clara, CA, USA).

Jurkat cells [1] = experiment: MILLIPLEX MAP 7-plex DNA Damage/Genotoxicity Magnetic Bead Kit (Luminex)
From the text: (§3) In this study, we employed Luminex technology (MILLIPLEX® MAP 7-plex DNA Damage/Genotoxicity Magnetic Bead Kit and MILLIPLEX® MAP Early Apoptosis 7-plex Magnetic Bead Kit) to analyze protein analytes in Jurkat cell lysates. […] The Luminex xMAP intracellular protein assay is a multiplex multiparameter assay that employs a multiplex of fluorescent-labeled antibodies and magnetic particles to enhance the sensitivity, dynamic range, and accuracy of the analytical method. Luminex technology is employed to identify the proteins of interest present in each well. The mean fluorescence intensity (MFI) of each measured protein is then converted to its concentration (pg·mL^−1) using specialized software and standard curves.
(§4) The test substances were incubated with the cells at two concentrations, […], for a period of six hours. […] Following exposure, approximately 1 × 10⁶ cells from each well were transferred to 0.5-mL tubes (Eppendorf, Hamburg, Germany) and washed with PBS. Subsequently, the PBS was removed, 10 μL of lysis buffer (Cell Signaling Buffer and Detection Kit, Luminex, Austin, TX, USA) supplemented with 2 × protease and phosphatase inhibitors (Luminex, USA) was added, and the mixture was shaken for 30 s. A cocktail of fluorescence-encoded magnetic bead microspheres (MagPlex®, Luminex, USA) was resuspended and treated with ultrasound. Subsequently, 70 μL of this cocktail, 70 μL of protein standard, and 70 μL of the test sample were added to the wells of a 96-well microplate and incubated for 2 h at room temperature with stirring on an orbital shaker at 700–850 rpm. A magnetic plate was firmly attached to the bottom of a 96-well plate, and all wells were washed three times with 100 μL of wash buffer (Cell Signaling Buffer and Detection Kit, Luminex, USA) added to each well to remove unbound particles. Subsequently, 50 μL of […] to each well, and the samples were incubated for one hour at 4 °C on an orbital shaker set at 700–850 rpm. Subsequently, the samples were washed once more to remove any unbound antibodies. Afterwards, 70 μL of streptavidin-phycoerythrin (streptavidin-PE) (Luminex, USA) was added to each well and incubated for 30 min at room temperature on a shaker at 600 rpm. Subsequently, the samples were washed with streptavidin-PE and resuspended in 100 μL of wash buffer for a period of 2 min on a shaker at 800 rpm. The data were analyzed using the Milliplex Analyst 5.1 software (EMD Millipore, Billerica, MA, USA).

Jurkat cells [2] = experiment: MILLIPLEX MAP Early Apoptosis 7-plex Magnetic Bead Kit (Luminex); conditions: 6 h; for Casp 8 protein level: activated caspase-8
From the text: as §3, §4

[3] = Cytotoxicity assay (7-AAD, flow cytometry); conditions: human, Jurkat cells; Jurkat, 24 h incubation
Protocol: as §1, §2

[4] = Cytotoxicity assay (7-AAD, flow cytometry); conditions: human
Protocol: (§5) The human cell lines Jurkat, K562, U937, and HEK293 were obtained from the European Collection of Authenticated Cell Cultures (ECACC) and subsequently cultured in accordance with established standard protocols and sterile techniques. The cells were maintained in RPMI 1640 (for Jurkat, K562, and U937) or DMEM (for HEK293) medium, both of which were supplemented with […], 10% FBS (Sigma, Kanagawa, Japan), and 100 units/mL penicillin-streptomycin (Sigma). Subsequently, the cells were seeded into 24-well plates at a density of 5 × 10^4 cells per well and incubated for 12 h (Jurkat, K562, U937) and 24 h (HEK293).
(§6) The viability of the cells was evaluated through the utilization of the 7-AAD (7-aminoactinomycin D) dye (eBioscience™, San Diego, CA, USA). Following a 24 h incubation period with the test substances, the cells were washed with phosphate-salt buffer (PBS) and centrifuged at 400× g for five minutes. The precipitate was resuspended in 200 μL of flow cytometry buffer (PBS without calcium and magnesium, 2.5% FBS) and incubated with a 1 mM 7-AAD dye solution for 15 min in the dark at room temperature. Subsequently, all cell samples were subjected to analysis on a NovoCyte Penteon flow cytometer (Agilent, Santa Clara, CA, USA).

HEK293 = experiment: Cytotoxicity assay (7-AAD, flow cytometry); conditions: Homo sapiens; HEK293, abstract
Protocol: as §5, §6

K562 = experiment: Cytotoxicity assay (7-AAD, flow cytometry); conditions: Homo sapiens; K562, abstract
Protocol: as §5, §6

U937 = experiment: Cytotoxicity assay (7-AAD, flow cytometry); conditions: Homo sapiens, U-937; U937, abstract
Protocol: as §5, §6

Jurkat cells [5] = experiment: Cell cycle analysis (MAK344 kit, flow cytometry); conditions: compound at CC50, 24 h
Protocol: Cell cycle analysis was performed using the MAK344 cell cycle assay kit (Sigma-Aldrich, St. Louis, MO, USA). Immediately after incubation with the tested compounds for 24 h, cells were gently washed with ice-cold phosphate-buffered saline (PBS) and centrifuged at 450× g for 5 min. After removing the supernatant, the cell precipitate was resuspended and fixed with 70% ethanol with continuous shaking on ice, and then stored at −18 degrees Celsius for 24 h. Prior to staining, the cells were washed with ice-cold PBS, and then 0.5 mL of the Cell Cycle Assay Kit working solution was added to the cell suspension at room temperature in the dark according to the working protocol. Samples were then analyzed on a NovoCyte Penteon flow cytometer (Agilent, USA).

[6] = 6 h, at CC50 (anisomycin at IC50 0.192 μmol/L), ATR (total)
[7] = 6 h, at CC50 (anisomycin at IC50 0.192 μmol/L), CHK1 (S345)
[8] = 6 h, at CC50 (anisomycin at IC50 0.192 μmol/L), CHK2 (T68)
[9] = 6 h, at CC50 (anisomycin at IC50 0.192 μmol/L), H2AX (S139)
[10] = 6 h, at CC50 (anisomycin at IC50 0.192 μmol/L), MDM2 (total)
[11] = 6 h, at CC50 (anisomycin at IC50 0.192 μmol/L), p21 (total)
[12] = 6 h, at CC50 (anisomycin at IC50 0.192 μmol/L), p53 (S15), genotoxicity panel
[13] = at CC50 (anisomycin at IC50 0.192 μmol/L), AKT/PKB (S473)
[14] = at CC50 (anisomycin at IC50 0.192 μmol/L), BAD (S112)
[15] = at CC50 (anisomycin at IC50 0.192 μmol/L), BCL-2 (S70)
[16] = at CC50 (anisomycin at IC50 0.192 μmol/L), JNK/SAPK1 (T183/Y185)
[17] = at CC50 (anisomycin at IC50 0.192 μmol/L)
[18] = at CC50 (anisomycin at IC50 0.192 μmol/L), activated caspase-9
[19] = at CC50 (anisomycin at IC50 0.192 μmol/L), p53 (S46), apoptosis panel
[20] = HEK293 cells, HEK293, 24 h incubation
[21] = K562 cells, K562, 24 h incubation
[22] = U937 cells, U937, 24 h incubation

SMILES | ATR protein level (Jurkat cells [1]; [6]) | Chk1 protein level (Jurkat cells [1]; [7]) | Chk2 protein level (Jurkat cells [1]; [8]) | H2A.X protein level (Jurkat cells [1]; [9]) | MDM2 protein level (Jurkat cells [1]; [10]) | p21 protein level (Jurkat cells [1]; [11]) | p53 protein level (Jurkat cells [1]; [12]) | Akt protein level (Jurkat cells [2]; [13]) | Bad protein level (Jurkat cells [2]; [14]) | Bcl-2 protein level (Jurkat cells [2]; [15]) | JNK protein level (Jurkat cells [2]; [16]) | Casp 8 protein level (Jurkat cells [2]; [17]) | Casp9 protein level (Jurkat cells [2]; [18]) | p53 protein level (Jurkat cells [2]; [19]) | CC50 at 24 h [3] [µM] | CC50 at 24 h [4, 20] [µM] | CC50 at 24 h [4, 21] [µM] | CC50 at 24 h [4, 22] [µM] | cell population in the S-phase (Freq S) (Jurkat cells [5]) [%] | percentage of cells in the G2/M phase (Freq G2) (Jurkat cells [5]) [%] | further results
COc1ccc(C[C@H]2NC[C@H](O)[C@H]2OC(C)=O)cc1 [Anisomycin, anisomycin, reference compound] | 440 % of control | 610 % of control | 20836 % of control | 1841 % of control | 367 % of control | 3727 % of control | 738 % of control | 129 % of control | 486 % of control | 3180 % of control | 357 % of control | 1229 % of control | 9353 % of control | 17 % of control | – | – | – | – | – | – | IC50 (Jurkat; Jurkat cells, concentration used for the control compound, read-out: IC50): 0.192 µM
Cn1nccc1NC(=O)[C@]12CCC(C)(C)C[C@H]1C1=CC[C@@H]3[C@@]4(C)CC[C@H](OC(=O)CCC/C=C\CC/C=C\CCCC(=O)O)C(C)(C)[C@@H]4CC[C@@]3(C)[C@]1(C)CC2 [compound 9a] | 131 % of control | 144 % of control | 936 % of control | 3173 % of control | 102 % of control | 390 % of control | 128 % of control | – | 55 % of control | 20 % of control | 106 % of control | 17 % of control | 1341 % of control | 160 % of control | 4.51 ± 0.41 | 26.2 ± 1.93 | 3.09 ± 0.34 | 2.85 ± 0.34 | 46.10 | 3.96 | IC50 (Jurkat; Homo sapiens, Jurkat, abstract, read-out: IC50 Jurkat): 4.5 µM; IC50 (HEK293): 26.2 µM; IC50 (K562): 3.1 µM; IC50 (U937): 2.8 µM; percentage of cells in the pre-G0 phase (Freq Sub-G1) (Jurkat cells [5]): 8.67%; ATR protein level (Jurkat cells [1]; 6 h, at 0,5CC50): 119 % of control; Chk1 protein level (Jurkat cells [1]; 6 h, at 0,5CC50): 97 % of control; Chk2 protein level (Jurkat cells [1]; 6 h, at 0,5CC50): 645 % of control; H2A.X protein level (Jurkat cells [1]; 6 h, at 0,5CC50): 2485 % of control; MDM2 protein level (Jurkat cells [1]; 6 h, at 0,5CC50): 115 % of control; p21 protein level (Jurkat cells [1]; 6 h, at 0,5CC50): 318 % of control; p53 protein level (Jurkat cells [1]; 6 h, at 0,5CC50, genotoxicity panel): 52 % of control; level of phosphorylated H2A.X in comparison to the control compound camptothecin (Jurkat cells [1]; 6 h, at 0.5CC50): ~3.5 fold; phosphorylated H2A.X, marker of DNA double-strand breaks (Jurkat cells [1]; six hours): dose-dependent increase; Akt protein level (Jurkat cells [2]; at 0,5CC50): 15 % of control; Bad protein level (Jurkat cells [2]; at 0,5CC50): 106 % of control; Bcl-2 protein level (Jurkat cells [2]; at 0,5CC50): 140 % of control; Casp9 protein level (Jurkat cells [2]; at 0,5CC50): 1144 % of control; JNK protein level (Jurkat cells [2]; at 0,5CC50): 78 % of control; p53 protein level (Jurkat cells [2]; at 0,5CC50, apoptosis panel): 112 % of control
CC[C@@]1(O)C(=O)OCc2c1cc1n(c2=O)Cc2cc3ccccc3nc2-1 [CPT, camptothecin, reference compound] | 263 % of control | 52 % of control | 5800 % of control | 957 % of control | 1417 % of control | 170654 % of control | 17285 % of control | 196 % of control | 516 % of control | 580 % of control | 141 % of control | 209 % of control | 10289 % of control | 132 % of control | 0.588 ± 0.0462 | 0.692 ± 0.0536 | 0.595 ± 0.0544 | 0.522 ± 0.0444 | – | – | –
CC(=O)O[C@H]1CC[C@@]2(C)C(CC[C@]3(C)C2CC=C2C4CC(C)(C)CC[C@]4(C(=O)Nc4ccnn4C)CC[C@]23C)C1(C)C (stereo partly drawn) [compound 7a] | – | – | – | – | – | – | – | – | – | – | – | – | – | – | 22.1 ± 1.96 | 58.4 ± 6.02 | 17.7 ± 1.39 | 14.4 ± 1.04 | 48.89 | 1.91 | –
